EP0115821A1, “Fluoran compounds” (HODOGAYA CHEMICAL CO., LTD., priority 1983, dated 1984)

Experiment: Solubility in organic solvents
Type: physicochemical
Settings: at 50°C; for solubility (% by weight) in organic solvents: Hyzole-296: Hyzole-296 (diallylethane compound); for solubility (% by weight) in organic solvents: KMC-113: KMC-113 (alkyl naphthalene compound)
Text: The solubility of the fluoran compounds (B), (C) and (D) of the present invention in organic solvents was compared with that of the above-mentioned conventional fluoran compounds(A-1), (A-2) and (A-3), and the results are shown in Table 1.
Note: KMC-113 is an alkyl naphthalene compound manufactured by Kureha Chemical Industry Co. Ltd., and Hyzole-296 is a diallylethane compound manufactured by Nippon Petrochemical Co. Ltd. Both are organic solvents commonly used for pressure sensitive record sheets.

Row | solubility (% by weight) in organic solvents: Hyzole-296 [% by weight] | solubility (% by weight) in organic solvents: KMC-113 [% by weight] | Structure (SMILES)
1 | 3.10 | 1.90 | CCN(CC)c1ccc2c(c1)Oc1ccc(NCc3ccc(Cl)cc3)cc1C21OC(=O)c2ccccc21 (stereo not drawn) [(A-3), 2-(4-chlorobenzylamino)-6-diethylamino fluoran]
2 | 1.40 | 0.44 | CCN(CC)c1ccc2c(c1)Oc1ccc(NCc3ccccc3)cc1C21OC(=O)c2ccccc21 (stereo not drawn) [Compound (A-1), 2-benzylamino-6-diethylamino fluoran]
3 | 1.80 | 1.20 | CCN(CC)c1ccc2c(c1)Oc1ccc(NCc3ccccc3Cl)cc1C21OC(=O)c2ccccc21 (stereo not drawn) [Compound (A-2), 2-(2-chlorobenzylamino)-6-diethylamino fluoran]
4 | 4.80 | 3.30 | CCCCN(CCCC)c1ccc2c(c1)Oc1ccc(NCc3ccccc3Cl)cc1C21OC(=O)c2ccccc21 (stereo not drawn) [Compound (B), 2-(2-chlorobenzylamino)-6-di-n-butylamino-fluoran]
5 | 6.30 | 4.20 | CCCCN(CCCC)c1ccc2c(c1)Oc1ccc(NCc3cccc(Cl)c3)cc1C21OC(=O)c2ccccc21 (stereo not drawn) [Compound (C), 2-(3-chlorobenzylamino)-6-di-n-butylamino-fluoran]
6 | 7.20 | 3.80 | CCCCN(CCCC)c1ccc2c(c1)Oc1ccc(NCc3ccc(Cl)cc3)cc1C21OC(=O)c2ccccc21 (stereo not drawn) [Compound (D), 2-(4-chlorobenzylamino)-6-di-n-butylamino-fluoran]
